This is an account of results in ChEMBL document CHEMBL2062508, “Lasionectrin, a naphthopyrone from a Lasionectria sp” (J Nat Prod, 2012).

The subject of the test is Plasmodium falciparum. Put plainly: Antiplasmodial activity against Plasmodium falciparum 3D7 infected in human erythrocytes by lactate dehydrogenase assay. Format: functional, organism-based.

Each structure is given as a SMILES string.

Consider `CCC[C@@H]1C[C@H]2OC(=O)c3c(cc4cc(OC)cc(O)c4c3O)[C@H]2O1` [LASIONECTRIN], for which the IC50 was 11 µM.
